Reference: US20220411785A1, “LIBRARY OF BARCODED EXTRACELLULAR VESICLES” (The University of Tokyo, priority 2019, published 2022)

Test system: HEK293T cells expressing CD63-nanoLuc
Experiment: EV secretion level after GSK-A1 (nanoLuc luminescence assay / nanoparticle tracking analysis)
Type: cell-based
Details: addition of GSK-A1; control without GSK-A1 set as 1; nluc activity in culture supernatant or NTA
Experimental: A PI4KA inhibitor, GSK-A1, was administered to HEK293T cells expressing CD63-nanoLuc (pDB30), and the amount of secreted extracellular vesicles was measured by luminescence assay (Promega Corporation, Nanoglo luciferase assay system) that measures the nluc activity in a culture supernatant or by nanoparticle tracking analysis (NTA) using Nanosight (Malvern Panalytical Ltd.). As a control, the same experiment was performed without administering GSK-A1, and the EV secretion level at each GSK-A1 concentration was calculated by setting the EV secretion level of the control as 1.

## COc1ncc(-c2ccc3nc(N)n(-c4ccc(N5CCOCC5)cc4)c3c2)cc1S(=O)(=O)Nc1ccccc1F [GSK-A1, 5-(2-amino-1-(4-morpholinophenyl)-1H-benzo[d]imidazol-6-yl)-N-(2-fluorophenyl)-2-methoxypyridine-3-sulfonamide]
  secretion level of a CD63 positive extracellular vesicle: increased
